Experimental data reported in US8183374B2, “Piperidine and piperazine derivatives” (M's Science Corporation, priority 2006, dated 2012).

What was measured:
rats = settings: microinjection/injection in rats; cited from earlier work
σ1 receptors = biological target: T1, σ1 receptors (Homo sapiens, UniProt Q99720); experiment: σ1 receptor binding assay; settings: HEK-293 cell membranes, 10 nM (+)-[3H]-pentazocine, 120 min at 37° C.
T1 construct: endogenous in cells; host or cells: HEK-293 cell membranes
T1 sequence (Q99720 whole entry): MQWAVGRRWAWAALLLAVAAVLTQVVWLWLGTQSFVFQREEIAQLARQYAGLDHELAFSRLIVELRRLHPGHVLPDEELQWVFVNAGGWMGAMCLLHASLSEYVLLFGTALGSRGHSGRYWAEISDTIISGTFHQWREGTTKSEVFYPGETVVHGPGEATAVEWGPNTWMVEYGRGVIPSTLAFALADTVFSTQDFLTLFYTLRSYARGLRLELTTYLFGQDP
Protocol: Sigma-1 (σ1) and sigma-2 (σ2) receptor binding assays are carried out in membranes from HEK-293 (Human Embryonic Kidney) cells.
Confluent HEK-293 cells are harvested in PBS/5 mM EDTA. They are centrifuged at 2000 rpm for 5 min and then washed two times in PBS. Cells are homogenized in 20 mM Tris-HCL (pH=7.5) containing 5 mM EDTA, 0.5 mM PMSF and 0.5 μg/mL leupeptin using a Dounce homogenizer and sonicated for 5 minutes.
Nuclear debris and intact cells are removed by centrifugation at 3000 rpm for 10 minutes at 4° C. […]
Proteins are determined using the Bio Rad Protein Assay Dye Reagent and the membranes are aliquoted and frozen at −80° C. […]
Total binding is determined by incubating 50 μg of HEK-293 cell membranes with 10 nM (+)−[^3H]-pentazocine (Perkin-Elmer, 35 Ci/mmol) and assay buffer (50 mM Tris-HCl, pH=8.3) in a total volume of 200 μl. Non specific binding is determined in the presence of 10 μM unlabeled pentazocine. […] The filters are washed three times and the membrane-bound radioactivity is determined in a Microbeta scintillation counter. […]
Specific binding is determined by subtraction of non specific binding from total binding. […]

## Cc1ccccc1NC(=N)Nc1ccccc1C [DTG, 1,3-di-2-tolyl-guanidine]
rats
  neck dystonia in rats: induced neck dystonia

## COc1cc(CCC(=O)N2CCN(CCOc3ccc(F)cc3)CC2)cc(OC)c1OC.Cl [Example 35, 1-{4-[2-(4-Fluorophenoxy)Ethyl]Piperazin-1-yl}-3-(3,4,5-Trimethoxy-Phenyl)Propan-1-One Hydrochloride]
σ1 receptors
  IC50 in the σ1 receptor binding assay: a little less active

## COc1cc(CC(=O)N2CCN(CCOc3ccccc3F)CC2)cc(OC)c1OC.Cl [Example 41, 1-{4-[2-(2-Fluorophenoxy)Ethyl]Piperazin-1-yl}-2-(3,4,5-Trimethoxy-Phenyl)Ethanone Hydrochloride]
σ1 receptors
  IC50 in the σ1 receptor binding assay: a little less active

## COc1ccc(CCN2CCN(CCCc3ccccc3)CC2)cc1OC [SA-4503, 1-[2-(3,4-dimethoxyphenyl)ethyl]-4-(3-phenylpropyl)piperazine]
rats
  neck dystonia in rats: had no effect
